# Experimental data as given in ChEMBL document CHEMBL5465560, “Selectivity Literature for EUbOPEN Chemogenomic Library” (2024).
# Legend:
# [1] = molecular target: T1, Activin receptor type-1B (Homo sapiens) (UniProt P36896); assay: Selectivity interaction (KinomeScan (DiscoverX)) EUB0001049a ACVR1B; details: at 1 µM
# T1 sequence (whole entry): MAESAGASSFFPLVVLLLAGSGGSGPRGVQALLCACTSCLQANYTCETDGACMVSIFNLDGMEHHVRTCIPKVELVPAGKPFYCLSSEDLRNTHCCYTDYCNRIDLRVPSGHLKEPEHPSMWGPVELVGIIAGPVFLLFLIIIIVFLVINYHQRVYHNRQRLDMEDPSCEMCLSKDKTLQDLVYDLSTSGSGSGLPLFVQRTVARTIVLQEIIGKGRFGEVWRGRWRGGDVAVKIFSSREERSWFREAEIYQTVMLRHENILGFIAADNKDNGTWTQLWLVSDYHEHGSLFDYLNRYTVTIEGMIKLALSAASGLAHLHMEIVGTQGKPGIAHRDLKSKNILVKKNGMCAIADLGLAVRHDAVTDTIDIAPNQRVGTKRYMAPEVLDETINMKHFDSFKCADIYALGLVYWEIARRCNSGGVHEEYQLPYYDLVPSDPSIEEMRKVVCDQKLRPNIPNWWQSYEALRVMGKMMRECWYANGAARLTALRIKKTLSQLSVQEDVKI
# [2] = molecular target: Dual specificity tyrosine-phosphorylation-regulated kinase 1A (Homo sapiens, UniProt Q13627); assay: Selectivity interaction (Ambit KINOMEscan and KiNATiv profiling in Jurkat cells) EUB0000090b DYRK1A; assay type: cell-based; details: at 1 µM
# [3] = molecular target: T2, Kinase suppressor of Ras 2 (Homo sapiens) (UniProt Q6VAB6); assay: Selectivity interaction (ActivX KiNativ screen (kinase selectivity in THP-1 cell lysates)) EUB0000639a KSR2; assay type: subcellular; details: lysate
# T2 sequence (whole entry): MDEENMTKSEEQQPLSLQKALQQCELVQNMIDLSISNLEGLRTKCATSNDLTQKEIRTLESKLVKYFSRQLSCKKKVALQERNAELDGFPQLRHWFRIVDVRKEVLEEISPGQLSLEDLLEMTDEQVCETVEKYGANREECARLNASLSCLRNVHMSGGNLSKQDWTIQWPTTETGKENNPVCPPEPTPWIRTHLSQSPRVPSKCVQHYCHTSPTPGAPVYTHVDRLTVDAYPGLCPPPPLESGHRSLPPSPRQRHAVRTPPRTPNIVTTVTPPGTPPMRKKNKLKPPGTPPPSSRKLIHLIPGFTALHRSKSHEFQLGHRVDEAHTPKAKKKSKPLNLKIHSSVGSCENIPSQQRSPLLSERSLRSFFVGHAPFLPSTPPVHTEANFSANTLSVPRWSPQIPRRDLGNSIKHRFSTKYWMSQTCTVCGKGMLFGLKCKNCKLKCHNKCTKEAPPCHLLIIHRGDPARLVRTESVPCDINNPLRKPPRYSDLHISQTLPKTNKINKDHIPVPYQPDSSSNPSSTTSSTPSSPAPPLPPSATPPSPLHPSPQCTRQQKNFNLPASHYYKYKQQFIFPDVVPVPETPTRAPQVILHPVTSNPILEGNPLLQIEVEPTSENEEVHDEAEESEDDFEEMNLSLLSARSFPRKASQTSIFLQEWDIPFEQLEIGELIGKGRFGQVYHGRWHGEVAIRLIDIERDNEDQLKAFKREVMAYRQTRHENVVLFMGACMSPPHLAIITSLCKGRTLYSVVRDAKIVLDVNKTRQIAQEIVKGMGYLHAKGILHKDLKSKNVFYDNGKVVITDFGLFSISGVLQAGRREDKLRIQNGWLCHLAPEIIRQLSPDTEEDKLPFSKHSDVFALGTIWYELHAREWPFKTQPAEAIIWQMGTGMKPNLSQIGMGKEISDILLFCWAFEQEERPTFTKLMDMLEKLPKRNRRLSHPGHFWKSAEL
# [4] = molecular target: BDNF/NT-3 growth factors receptor (Homo sapiens) (UniProt Q16620); assay: Selectivity interaction (Kinase panel (Z-LYTE Assay)) EUB0001632a NTRK2; details: at 10 µM
# [5] = molecular target: Insulin receptor (Homo sapiens, UniProt P06213); assay: Selectivity interaction (Kinase panel (enzymatic assay)) EUB0000595a INSR
# [6] = molecular target: Cyclin-dependent kinase 2 (Homo sapiens, UniProt P24941); assay: Selectivity interaction (KinomeScan (DiscoverX)) EUB0000229b CDK2; details: at 10 µM
# [7] = molecular target: Receptor tyrosine-protein kinase erbB-3 (Homo sapiens) (UniProt P21860); assay: Selectivity interaction (KinomeScan (DiscoverX)) EUB0000229b ERBB3; details: at 10 µM
# [8] = molecular target: Serine/threonine-protein kinase SIK2 (Homo sapiens) (UniProt Q9H0K1); assay: Selectivity interaction (KinomeScan (DiscoverX)) EUB0000229b SIK2; details: at 10 µM
# [9] = molecular target: High affinity nerve growth factor receptor (Homo sapiens, UniProt P04629); assay: Selectivity interaction (KinomeScan (DiscoverX)) EUB0001079a NTRK1; details: at 1 µM
# [10] = molecular target: Fibroblast growth factor receptor 2 (Homo sapiens) (UniProt P21802); assay: Selectivity interaction (KinomeScan (DiscoverX)) EUB0000092b FGFR2; details: at 10 µM
# [11] = molecular target: T3, Dual specificity mitogen-activated protein kinase kinase 4 (Homo sapiens) (UniProt P45985); assay: Selectivity interaction (KinomeScan (DiscoverX)) EUB0001619a MAP2K4; details: at 1 µM
# T3 sequence (whole entry): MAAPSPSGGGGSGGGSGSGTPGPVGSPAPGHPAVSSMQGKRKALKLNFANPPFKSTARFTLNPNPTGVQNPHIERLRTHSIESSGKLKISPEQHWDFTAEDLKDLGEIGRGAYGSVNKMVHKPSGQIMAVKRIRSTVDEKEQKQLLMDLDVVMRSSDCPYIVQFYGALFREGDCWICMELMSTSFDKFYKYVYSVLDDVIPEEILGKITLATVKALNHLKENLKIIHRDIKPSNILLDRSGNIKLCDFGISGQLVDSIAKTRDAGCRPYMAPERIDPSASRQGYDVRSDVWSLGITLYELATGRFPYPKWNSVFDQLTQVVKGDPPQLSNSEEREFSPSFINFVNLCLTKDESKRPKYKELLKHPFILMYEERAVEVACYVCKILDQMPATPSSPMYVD
# Sequence of High affinity nerve growth factor receptor (P04629 33-796 limits assumed): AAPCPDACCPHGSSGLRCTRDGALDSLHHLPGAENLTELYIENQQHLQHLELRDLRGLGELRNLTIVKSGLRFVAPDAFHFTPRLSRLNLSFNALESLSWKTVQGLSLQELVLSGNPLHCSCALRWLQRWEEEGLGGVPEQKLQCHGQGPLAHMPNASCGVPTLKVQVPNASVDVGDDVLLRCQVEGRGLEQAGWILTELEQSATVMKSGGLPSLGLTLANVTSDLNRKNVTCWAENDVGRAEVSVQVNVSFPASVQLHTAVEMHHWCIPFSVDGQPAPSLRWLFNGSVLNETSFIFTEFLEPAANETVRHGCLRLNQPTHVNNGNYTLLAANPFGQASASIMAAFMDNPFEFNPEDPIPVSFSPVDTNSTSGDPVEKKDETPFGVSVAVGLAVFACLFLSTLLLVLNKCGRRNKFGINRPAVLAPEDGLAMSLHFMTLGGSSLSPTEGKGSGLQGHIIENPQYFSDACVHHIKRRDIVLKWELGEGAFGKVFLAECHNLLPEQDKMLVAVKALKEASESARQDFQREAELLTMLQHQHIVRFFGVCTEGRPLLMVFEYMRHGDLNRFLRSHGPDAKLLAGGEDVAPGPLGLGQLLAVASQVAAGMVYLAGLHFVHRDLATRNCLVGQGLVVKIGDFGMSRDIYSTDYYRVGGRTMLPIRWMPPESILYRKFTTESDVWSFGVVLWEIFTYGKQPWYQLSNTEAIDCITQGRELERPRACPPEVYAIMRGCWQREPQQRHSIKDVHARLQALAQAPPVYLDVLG
# Sequence of Insulin receptor (P06213 28-758 limits assumed): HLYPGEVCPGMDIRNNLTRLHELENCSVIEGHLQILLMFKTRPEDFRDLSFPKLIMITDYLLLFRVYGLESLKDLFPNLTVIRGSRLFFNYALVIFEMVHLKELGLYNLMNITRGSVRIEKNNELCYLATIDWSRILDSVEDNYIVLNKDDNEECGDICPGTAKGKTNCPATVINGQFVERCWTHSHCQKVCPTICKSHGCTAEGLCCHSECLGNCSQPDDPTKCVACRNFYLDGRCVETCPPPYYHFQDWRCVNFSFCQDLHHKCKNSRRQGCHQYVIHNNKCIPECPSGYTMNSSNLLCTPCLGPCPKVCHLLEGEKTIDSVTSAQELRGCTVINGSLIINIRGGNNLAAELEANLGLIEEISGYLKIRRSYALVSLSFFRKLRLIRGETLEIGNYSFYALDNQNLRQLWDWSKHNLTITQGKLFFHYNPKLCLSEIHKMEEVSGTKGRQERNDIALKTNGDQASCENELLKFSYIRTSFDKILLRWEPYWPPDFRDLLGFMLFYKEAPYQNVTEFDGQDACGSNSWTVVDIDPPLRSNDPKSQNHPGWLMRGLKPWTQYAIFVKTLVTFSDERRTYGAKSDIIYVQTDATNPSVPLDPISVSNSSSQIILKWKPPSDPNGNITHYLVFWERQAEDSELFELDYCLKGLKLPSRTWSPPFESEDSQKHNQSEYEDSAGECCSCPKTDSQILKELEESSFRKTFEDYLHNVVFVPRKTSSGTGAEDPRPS
# Sequence of Insulin receptor (P06213 763-1382 limits assumed): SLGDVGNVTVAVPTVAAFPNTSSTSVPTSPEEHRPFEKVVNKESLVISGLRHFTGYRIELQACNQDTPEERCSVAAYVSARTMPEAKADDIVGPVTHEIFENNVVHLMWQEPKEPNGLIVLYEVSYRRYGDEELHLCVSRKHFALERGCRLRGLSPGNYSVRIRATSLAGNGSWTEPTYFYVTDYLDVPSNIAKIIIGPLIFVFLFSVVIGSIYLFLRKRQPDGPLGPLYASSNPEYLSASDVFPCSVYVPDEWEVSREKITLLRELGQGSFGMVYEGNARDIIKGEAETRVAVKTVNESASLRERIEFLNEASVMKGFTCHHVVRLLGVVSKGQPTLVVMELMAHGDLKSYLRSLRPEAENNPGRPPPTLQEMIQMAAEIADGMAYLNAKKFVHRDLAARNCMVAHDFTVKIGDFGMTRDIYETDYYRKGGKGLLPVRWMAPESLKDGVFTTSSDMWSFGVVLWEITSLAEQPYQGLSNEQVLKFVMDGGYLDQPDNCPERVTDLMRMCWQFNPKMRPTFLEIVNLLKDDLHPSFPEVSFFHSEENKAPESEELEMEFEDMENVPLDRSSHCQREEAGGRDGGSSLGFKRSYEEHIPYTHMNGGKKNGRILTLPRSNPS
# Sequence of Receptor tyrosine-protein kinase erbB-3 (Homo sapiens) (P21860 whole entry): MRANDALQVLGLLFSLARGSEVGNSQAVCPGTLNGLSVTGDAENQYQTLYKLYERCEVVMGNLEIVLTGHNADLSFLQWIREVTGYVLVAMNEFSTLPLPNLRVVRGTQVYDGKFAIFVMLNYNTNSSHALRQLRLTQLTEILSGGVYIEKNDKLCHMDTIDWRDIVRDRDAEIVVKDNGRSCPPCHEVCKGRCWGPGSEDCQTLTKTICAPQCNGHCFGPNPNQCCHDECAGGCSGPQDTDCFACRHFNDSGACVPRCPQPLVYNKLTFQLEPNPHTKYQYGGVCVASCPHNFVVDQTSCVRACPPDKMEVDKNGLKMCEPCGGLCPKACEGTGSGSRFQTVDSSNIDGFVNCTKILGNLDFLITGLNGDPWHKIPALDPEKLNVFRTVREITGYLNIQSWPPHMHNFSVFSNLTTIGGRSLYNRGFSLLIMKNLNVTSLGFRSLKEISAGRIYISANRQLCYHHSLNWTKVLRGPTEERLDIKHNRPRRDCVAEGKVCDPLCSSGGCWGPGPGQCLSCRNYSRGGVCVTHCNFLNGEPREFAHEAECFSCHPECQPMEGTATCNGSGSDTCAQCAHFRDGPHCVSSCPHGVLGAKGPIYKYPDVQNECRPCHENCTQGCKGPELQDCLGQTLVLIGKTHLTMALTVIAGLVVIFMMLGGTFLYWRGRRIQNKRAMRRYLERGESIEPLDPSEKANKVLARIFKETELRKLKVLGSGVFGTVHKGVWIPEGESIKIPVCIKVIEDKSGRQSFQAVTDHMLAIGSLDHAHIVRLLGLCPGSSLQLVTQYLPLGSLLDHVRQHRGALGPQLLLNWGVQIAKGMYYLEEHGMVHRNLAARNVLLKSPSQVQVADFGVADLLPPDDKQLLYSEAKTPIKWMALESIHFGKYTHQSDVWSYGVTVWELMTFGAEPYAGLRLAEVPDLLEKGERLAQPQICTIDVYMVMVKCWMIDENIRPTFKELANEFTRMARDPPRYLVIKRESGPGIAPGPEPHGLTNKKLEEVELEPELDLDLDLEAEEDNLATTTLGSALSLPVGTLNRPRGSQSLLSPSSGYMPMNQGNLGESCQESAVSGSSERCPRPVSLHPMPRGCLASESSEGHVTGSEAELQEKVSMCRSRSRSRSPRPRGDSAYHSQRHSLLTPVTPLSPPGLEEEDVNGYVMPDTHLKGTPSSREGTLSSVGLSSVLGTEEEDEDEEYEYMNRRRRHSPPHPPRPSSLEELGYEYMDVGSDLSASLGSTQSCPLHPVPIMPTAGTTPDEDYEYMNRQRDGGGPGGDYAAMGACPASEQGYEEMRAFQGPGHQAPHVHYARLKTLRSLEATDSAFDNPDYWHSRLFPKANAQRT
# Sequence of BDNF/NT-3 growth factors receptor (Homo sapiens) (Q16620 32-822 limits assumed): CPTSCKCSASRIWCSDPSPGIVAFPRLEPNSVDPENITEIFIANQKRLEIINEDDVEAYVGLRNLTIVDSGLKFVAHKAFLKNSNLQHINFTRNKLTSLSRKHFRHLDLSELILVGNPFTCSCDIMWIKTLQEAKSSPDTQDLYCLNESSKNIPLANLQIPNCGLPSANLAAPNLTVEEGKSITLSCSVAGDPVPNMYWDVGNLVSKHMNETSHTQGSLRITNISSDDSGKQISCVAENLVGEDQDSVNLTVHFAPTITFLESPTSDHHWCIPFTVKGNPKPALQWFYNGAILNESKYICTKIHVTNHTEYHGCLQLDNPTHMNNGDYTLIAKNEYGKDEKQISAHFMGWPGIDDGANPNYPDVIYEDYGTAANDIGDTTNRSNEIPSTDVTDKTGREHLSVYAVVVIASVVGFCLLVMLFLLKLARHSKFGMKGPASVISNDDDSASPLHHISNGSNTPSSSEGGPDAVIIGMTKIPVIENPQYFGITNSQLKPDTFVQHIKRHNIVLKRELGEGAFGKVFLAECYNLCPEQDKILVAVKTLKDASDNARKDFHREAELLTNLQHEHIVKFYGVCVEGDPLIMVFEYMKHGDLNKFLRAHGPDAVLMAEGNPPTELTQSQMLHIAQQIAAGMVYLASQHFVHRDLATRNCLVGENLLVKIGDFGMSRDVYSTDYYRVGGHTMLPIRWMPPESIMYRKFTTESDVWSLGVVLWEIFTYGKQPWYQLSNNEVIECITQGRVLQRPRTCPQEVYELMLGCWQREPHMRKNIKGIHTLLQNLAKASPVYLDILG
# Sequence of Fibroblast growth factor receptor 2 (Homo sapiens) (P21802 22-821 limits assumed): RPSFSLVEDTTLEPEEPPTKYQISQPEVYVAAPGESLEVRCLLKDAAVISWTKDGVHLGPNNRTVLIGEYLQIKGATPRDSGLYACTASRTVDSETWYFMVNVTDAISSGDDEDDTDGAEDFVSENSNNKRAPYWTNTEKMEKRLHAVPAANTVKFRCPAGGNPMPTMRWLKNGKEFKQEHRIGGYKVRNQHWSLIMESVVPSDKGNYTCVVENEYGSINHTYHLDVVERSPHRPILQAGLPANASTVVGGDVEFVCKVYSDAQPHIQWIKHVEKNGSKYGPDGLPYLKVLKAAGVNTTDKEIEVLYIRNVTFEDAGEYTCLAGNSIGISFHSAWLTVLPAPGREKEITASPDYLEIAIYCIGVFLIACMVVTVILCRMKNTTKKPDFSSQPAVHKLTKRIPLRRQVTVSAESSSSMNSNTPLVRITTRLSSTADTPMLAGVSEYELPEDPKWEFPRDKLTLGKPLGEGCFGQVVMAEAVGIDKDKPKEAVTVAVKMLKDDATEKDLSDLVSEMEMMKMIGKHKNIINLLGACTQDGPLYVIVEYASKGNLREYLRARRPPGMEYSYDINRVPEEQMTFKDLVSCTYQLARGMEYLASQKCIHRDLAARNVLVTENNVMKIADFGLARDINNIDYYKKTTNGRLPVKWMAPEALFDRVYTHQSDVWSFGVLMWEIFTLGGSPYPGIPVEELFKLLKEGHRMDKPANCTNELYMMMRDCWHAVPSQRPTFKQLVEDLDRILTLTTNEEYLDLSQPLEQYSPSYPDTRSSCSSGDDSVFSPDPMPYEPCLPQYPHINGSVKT
compound,measurement,setting,value
COc1cc(Nc2nc(C)cc(-c3cnn4nc(OC)ccc34)n2)cc(C(F)(F)F)c1,% of control,[1],100%
CN(C)C/C=C/C(=O)Nc1ccc(C(=O)N2CCCC(Nc3ncc(Cl)c(-c4c[nH]c5ccccc45)n3)C2)cc1 (centres undefined),% of control,[2],30%
CC[C@@H]1[C@H](F)C(=O)N[C@@H]1COc1nccc2cc(C(N)=O)c(OC)cc12 [ZIMLOVISERTIB],% of inhibition,[3]; at 0.01 µM,2.4%
same,% of inhibition,[3]; at 0.2 µM,-8.6%
same,% of inhibition,[3]; at 1 µM,-32.8%
same,% of inhibition,[3]; at 5 µM,-57.9%
Cn1cc(-n2cnc3c(NCc4nc5cc(Cl)c(Cl)cc5[nH]4)nc(N4CCOCC4)nc32)cn1,% of control,[4],4.86%
COCC(=O)NC/C=C/c1ccc2ncnc(Nc3ccc(Oc4ccc(C)nc4)c(C)c3)c2c1 [CP-724714],IC50,[5],> 10 µM
COc1cc(N(C)c2ccnc3ccc(C(F)(F)F)cc23)cc(OC)c1OC,% binding,[6],100%
same,% binding,[7],93%
same,% binding,[8],98%
Nc1cnc(N2CCc3cc(S(=O)(=O)Nc4c(F)cc(Cl)cc4F)cc(N4CCCC4=O)c32)nc1 [TP-020n],% of control,[9],100%
CCC(=O)N1CCN(c2ccc(-n3c(=O)ccc4cnc5ccc(-c6cnc7ccccc7c6)cc5c43)cc2C(F)(F)F)CC1,% of control,[10],55%
N#Cc1cccc(-c2c[nH]c3ncnc(N4CCOCC4)c23)c1,% of control,[11],100%
